Values of other authors as cited in patent publication US8324220B2 (priority 2003, dated 2012).

Legend:
neuropathic pain = settings: human, in vivo
NaV1.3 = NaV1.3 (Homo sapiens, UniProt Q9NY46); settings: read-out: TTX IC50
NaV1.5 = NaV1.5 (Homo sapiens, UniProt Q14524)
NaV1.6 = NaV1.6 (Homo sapiens, UniProt Q9UQD0); settings: read-out: TTX IC50
NaV1.8 = NaV1.8 (Homo sapiens, UniProt Q9Y5Y9)
NaV1.9 = NaV1.9 (Homo sapiens, UniProt Q9UI33)
NaV1.1 = NaV1.1 (Homo sapiens, UniProt P35498); settings: read-out: TTX IC50
NaV1.2 = NaV1.2 (Homo sapiens, UniProt Q99250); settings: read-out: TTX IC50

Sequence of NaV1.9 (Q9UI33 whole entry, looked up): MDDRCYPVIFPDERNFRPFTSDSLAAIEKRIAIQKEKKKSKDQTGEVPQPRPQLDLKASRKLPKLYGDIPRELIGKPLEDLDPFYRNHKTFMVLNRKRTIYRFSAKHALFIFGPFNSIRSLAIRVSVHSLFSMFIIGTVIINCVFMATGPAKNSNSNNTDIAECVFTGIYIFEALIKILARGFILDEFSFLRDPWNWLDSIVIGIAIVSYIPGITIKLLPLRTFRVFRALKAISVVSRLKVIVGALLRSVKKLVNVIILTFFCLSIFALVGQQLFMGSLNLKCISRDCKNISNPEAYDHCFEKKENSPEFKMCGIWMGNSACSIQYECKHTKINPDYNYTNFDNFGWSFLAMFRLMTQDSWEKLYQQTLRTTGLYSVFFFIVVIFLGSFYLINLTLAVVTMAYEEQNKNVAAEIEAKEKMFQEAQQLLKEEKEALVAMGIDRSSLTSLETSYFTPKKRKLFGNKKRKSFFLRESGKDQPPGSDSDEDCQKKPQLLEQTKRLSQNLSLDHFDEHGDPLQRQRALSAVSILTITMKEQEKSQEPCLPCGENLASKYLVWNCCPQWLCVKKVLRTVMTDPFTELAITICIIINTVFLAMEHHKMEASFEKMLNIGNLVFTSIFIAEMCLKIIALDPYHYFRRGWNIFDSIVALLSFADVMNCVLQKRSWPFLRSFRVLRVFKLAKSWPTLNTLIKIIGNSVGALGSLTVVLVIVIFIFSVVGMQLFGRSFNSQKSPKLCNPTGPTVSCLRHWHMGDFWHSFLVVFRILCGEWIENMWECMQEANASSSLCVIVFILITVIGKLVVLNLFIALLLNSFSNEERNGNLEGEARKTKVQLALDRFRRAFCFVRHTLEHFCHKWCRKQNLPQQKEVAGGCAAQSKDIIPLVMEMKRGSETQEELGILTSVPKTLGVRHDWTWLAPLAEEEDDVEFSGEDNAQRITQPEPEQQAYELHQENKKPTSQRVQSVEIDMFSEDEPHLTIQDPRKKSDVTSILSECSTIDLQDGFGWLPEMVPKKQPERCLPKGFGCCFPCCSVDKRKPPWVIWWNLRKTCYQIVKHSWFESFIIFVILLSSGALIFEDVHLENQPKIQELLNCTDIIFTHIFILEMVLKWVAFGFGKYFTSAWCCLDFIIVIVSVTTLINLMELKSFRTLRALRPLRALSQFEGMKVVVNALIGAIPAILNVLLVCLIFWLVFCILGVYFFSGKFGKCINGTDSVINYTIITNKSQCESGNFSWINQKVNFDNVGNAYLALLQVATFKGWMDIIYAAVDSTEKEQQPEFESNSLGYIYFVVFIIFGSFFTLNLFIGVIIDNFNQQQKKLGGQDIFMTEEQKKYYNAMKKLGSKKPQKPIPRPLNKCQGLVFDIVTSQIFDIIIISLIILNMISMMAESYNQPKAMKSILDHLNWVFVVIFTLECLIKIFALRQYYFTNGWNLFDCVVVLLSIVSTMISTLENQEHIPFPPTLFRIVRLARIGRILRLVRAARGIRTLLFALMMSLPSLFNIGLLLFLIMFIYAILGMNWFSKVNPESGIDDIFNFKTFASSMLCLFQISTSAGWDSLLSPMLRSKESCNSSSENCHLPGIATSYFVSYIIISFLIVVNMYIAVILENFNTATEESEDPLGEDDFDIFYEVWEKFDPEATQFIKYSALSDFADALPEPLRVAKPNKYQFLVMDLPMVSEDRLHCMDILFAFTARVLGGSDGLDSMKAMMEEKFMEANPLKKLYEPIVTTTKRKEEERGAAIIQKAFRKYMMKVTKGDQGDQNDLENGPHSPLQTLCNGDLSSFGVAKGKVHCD
Sequence of NaV1.8 (Q9Y5Y9 whole entry, looked up): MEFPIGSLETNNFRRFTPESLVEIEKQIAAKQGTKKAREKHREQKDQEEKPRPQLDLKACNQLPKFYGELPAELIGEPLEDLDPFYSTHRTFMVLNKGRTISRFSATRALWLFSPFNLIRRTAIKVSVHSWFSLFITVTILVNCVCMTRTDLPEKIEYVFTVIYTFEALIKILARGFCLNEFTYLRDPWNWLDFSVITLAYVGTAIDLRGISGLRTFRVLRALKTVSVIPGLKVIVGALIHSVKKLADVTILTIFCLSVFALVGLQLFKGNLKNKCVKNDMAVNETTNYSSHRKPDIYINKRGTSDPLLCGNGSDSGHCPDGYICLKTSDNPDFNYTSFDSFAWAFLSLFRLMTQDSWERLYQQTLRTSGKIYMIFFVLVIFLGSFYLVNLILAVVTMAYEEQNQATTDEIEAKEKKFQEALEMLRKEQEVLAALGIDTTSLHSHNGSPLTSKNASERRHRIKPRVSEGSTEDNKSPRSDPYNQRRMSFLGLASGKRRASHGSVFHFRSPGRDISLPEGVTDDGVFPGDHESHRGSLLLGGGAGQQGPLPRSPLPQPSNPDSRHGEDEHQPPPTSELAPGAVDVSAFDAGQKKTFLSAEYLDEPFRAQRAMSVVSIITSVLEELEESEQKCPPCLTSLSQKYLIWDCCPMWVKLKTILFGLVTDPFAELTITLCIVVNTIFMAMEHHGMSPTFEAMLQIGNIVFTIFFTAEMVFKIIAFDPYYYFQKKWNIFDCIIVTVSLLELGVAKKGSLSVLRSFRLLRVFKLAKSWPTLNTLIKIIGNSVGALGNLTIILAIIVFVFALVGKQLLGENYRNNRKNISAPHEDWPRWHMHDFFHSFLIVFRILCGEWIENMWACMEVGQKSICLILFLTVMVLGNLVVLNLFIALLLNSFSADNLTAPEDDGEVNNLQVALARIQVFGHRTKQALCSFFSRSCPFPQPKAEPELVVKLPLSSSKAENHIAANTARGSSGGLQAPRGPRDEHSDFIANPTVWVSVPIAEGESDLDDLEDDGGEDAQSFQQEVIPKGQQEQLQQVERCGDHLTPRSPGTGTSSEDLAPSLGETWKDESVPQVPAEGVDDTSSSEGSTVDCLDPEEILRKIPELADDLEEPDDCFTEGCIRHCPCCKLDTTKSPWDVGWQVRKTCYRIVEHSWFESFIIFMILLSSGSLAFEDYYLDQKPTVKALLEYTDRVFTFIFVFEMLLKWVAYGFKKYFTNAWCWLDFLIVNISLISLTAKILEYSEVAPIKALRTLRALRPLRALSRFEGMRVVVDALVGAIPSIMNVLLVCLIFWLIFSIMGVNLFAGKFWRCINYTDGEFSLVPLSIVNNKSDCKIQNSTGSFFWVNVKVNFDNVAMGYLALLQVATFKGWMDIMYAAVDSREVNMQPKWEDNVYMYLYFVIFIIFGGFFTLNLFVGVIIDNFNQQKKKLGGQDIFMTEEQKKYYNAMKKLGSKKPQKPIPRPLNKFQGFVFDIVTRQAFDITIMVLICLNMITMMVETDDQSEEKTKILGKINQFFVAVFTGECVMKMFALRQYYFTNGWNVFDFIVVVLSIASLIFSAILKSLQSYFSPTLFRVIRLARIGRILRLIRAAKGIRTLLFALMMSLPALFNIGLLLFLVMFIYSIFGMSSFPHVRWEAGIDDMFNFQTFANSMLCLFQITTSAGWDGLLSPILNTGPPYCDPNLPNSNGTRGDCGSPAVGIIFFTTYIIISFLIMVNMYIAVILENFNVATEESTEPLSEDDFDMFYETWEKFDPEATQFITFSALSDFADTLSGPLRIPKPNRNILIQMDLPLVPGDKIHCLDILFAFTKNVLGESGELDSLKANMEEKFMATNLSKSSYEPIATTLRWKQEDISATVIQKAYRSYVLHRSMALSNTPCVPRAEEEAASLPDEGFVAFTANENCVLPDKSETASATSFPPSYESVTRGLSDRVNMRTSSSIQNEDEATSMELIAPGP

| SMILES | share of patients in which the drug works (neuropathic pain) | IC50 (NaV1.3) | block by TTX (NaV1.5) | IC50 (NaV1.6) | block by TTX (NaV1.8) | IC50 (NaV1.8; read-out: TTX IC50) | block by TTX (NaV1.9) | IC50 (NaV1.9; read-out: TTX IC50) | IC50 (NaV1.1) | IC50 (NaV1.2) |
| --- | --- | --- | --- | --- | --- | --- | --- | --- | --- | --- |
| NCC1(CC(=O)O)CCCCC1 [Gabapentin] | 60% |  |  |  |  |  |  |  |  |  |
| NC1=N[C@H](O)[C@H]2[C@H]3O[C@]4(O)O[C@@H]([C@@H](O)[C@@]2(N1)[C@@H]4O)[C@]3(O)CO [TTX, tetrodotoxin] |  | 15 nM | resistant to block | 6 nM | resistant to block | > 50000 nM | resistant to block | 1000 nM | 10 nM | 10 nM |
